From patent US7572436B1, “Thionin as an antineoplastic and immunostimulant” (priority 2000, dated 2009)
Where no end group is shown, it is not given here.

Columns and labels:
[1] = test system: membrane structure of cells or phospholipid vesicles; conditions: reported in the literature; begin around this value and continue up to and above 20 μg/ml; cited from earlier work
K562 Target Cells = experiment: Natural killer assay (^51Cr release), human PBLs against K562; type: cell-based; conditions: PT 0.01 μg/ml
Experimental: Murine spleen cell and human peripheral blood lymphocytes (PBLs) were obtained as described in the procedure for the Mitogen Assay.
Drugs and control substances were added, using sterile techniques, to the wells of a 24-well plate, using RPMI-10 as the culture medium. Spleen cells or human lymphocytes were added last to the wells at a concentration of 4×10^6 cells per 2 ml total volume in the well. Splenocyte incubation was usually three days (65-70 hours) while human lymphocyte stimulation may be extended to four to five days. The cells were incubated at 37° C. in a humidified 5% CO2 incubator.
On the day of harvest, 10^7 target cells were labeled with 150 μCi of ^51Cr (sodium chromate). Target cells used were YAC-I (murine Lymphoma) or K562 (human chronic myelogenous leukemia). […]
The 96-well plate was centrifuged at 150×g for four minutes to gently bring the effector and target cells in contact. […] The percent release was calculated using the following formula: […]
Addition of PT stimulates both murine splenocytes and human PBLs to kill tumor cells through lysis. […] After a 30-minute incubation, the radioactivity in the supernatant fluid was counted as a measure of lysis of the target cells, which reflects NK activity. […]

[2] = test system: B16F10 melanoma tumor cells; experiment: In vivo inhibition of B16F10 melanoma tumor development; parameters: species or system C57BL/6NCr female mice
Experimental: C57BL/6NCr female mice (20 g), approximately 50 days old, were shaved in the abdominal area, ear notched for identification, and, two or three days prior to receiving tumor cells, pre-injected subcutaneously with the immunostimulating drugs described.
On “day zero,” B16F10 melanoma tumor cells, cultured in αMEM medium with 10% FBS, were injected intradermally (10^5 cells in 0.1 ml) in the center of the mouse abdomen using a 26 gauge ½ inch needle. Four to five hours later, the drug treatment (as specified) was injected intradermally in a different area of the abdomen than the site of the tumor injection.
Intradermal treatments using the immunostimulatory drug (as specified) continued either every other day or on a Monday-Wednesday-Friday injection schedule. Control tumors (in mice not receiving an immunostimulatory drug) usually formed within seven to ten days. Tumors were examined by visual inspection, measured (length by width), and the area of any resulting lesion was recorded as mm^2 every five days.
Mice were euthanized by CO2 inhalation if the tumor exceeded 500 mm^2. Some experiments were terminated early if all mice in the control group were dead, but the experiments were not less than 20 days. The normal duration of an experiment was about 30 days.
Pyrularia thionin, both alone and in combination with IL-2, was effective in preventing or retarding the development of melanoma tumors when C57BL/6NCr mice were pretreated before injection with B16F10 cells, which produce melanoma tumors.

[3] = Toxic effect of PT on mice in vivo (LD50); parameters: species or system mouse
[4] = Stability of PT (temperature, proteases); type: physicochemical

Pyrularia thionin (KSCCRNTWARNCYNVCRLPGTISREICAKKCDCKIISGTTCPSDYPK; ends and bridges not checked; also: labeled with 125I) [PT]
concentrations required to induce changes in the membrane structure of cells or phospholipid vesicles [1]: ≥ 1000 ng/mL | % Cytotoxicity (K562 Target Cells): 8.4 ± 0.1% | development of tumors compared to mice injected with saline ([2]; 3 μg PT (with or without 100 units murine IL-2) sc five and two days prior to B16 cells and three times weekly thereafter): slowed the development of tumors | Average Tumor Size ([2]; B16 melanoma in C57 mice, sc 3 μg PT, 100 units IL-2, 20-31 days): 191 mm^2 | Number of Deaths ([2]; B16 melanoma in C57 mice, sc 3 μg PT, 100 units IL-2, total mice 12 (IL-2), 15 (PT), 24 (PT + IL-2)): 1 | Mice w/o Tumors ([2]; B16 melanoma in C57 mice, sc 3 μg PT, 100 units IL-2, total mice 12 (IL-2), 15 (PT), 24 (PT + IL-2), 20-31 days): 1 | remission of established tumors ([2]; B16 melanoma, Table 2 and FIG. 2): did not cause remission of established tumors | PT dose giving the best response ([2]; PT injected along with IL-2, per mouse): 3 µg | PT dose with little protection ([2]; per mouse, with IL-2): > 5 µg | LD50 ([3]; for a 20-gram mouse): 30 µg | LD50 relative to the amount with maximal protective (immunostimulatory) effect ([3]; versus 3 μg PT): ten times greater | interaction with cell membranes after exposure to temperature ([4]; 70° C.): not influenced | resistance to proteases ([4]; common proteases found in blood): resistant to the common proteases found in blood
